Experimental data taken from PubChem BioAssay (NCI).
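Results reflect a 48-hour exposure of cells in 96-well plates to compound at five concentrations. TGI denotes the concentration required for complete inhibition of growth.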

Experiments:
Experiment in all cases: growth of human tumour cells (NCI), 48 h
786-0 renal = system: 786-0 renal
A498 renal = system: A498 renal
A549 NSCLC = system: A549 NSCLC
ACHN renal = system: ACHN renal
BT-549 breast = system: BT-549 breast
CAKI-1 renal = system: CAKI-1 renal
CCRF-CEM leukemia = system: CCRF-CEM leukemia
COLO 205 colon = system: COLO 205 colon
DU-145 prostate = system: DU-145 prostate
EKVX NSCLC = system: EKVX NSCLC
HCC-2998 colon = system: HCC-2998 colon
HCT-116 colon = system: HCT-116 colon
HCT-15 colon = system: HCT-15 colon
HL-60(TB) leukemia = system: HL-60(TB) leukemia
HOP-62 NSCLC = system: HOP-62 NSCLC
HOP-92 NSCLC = system: HOP-92 NSCLC
HS 578T breast = system: HS 578T breast
HT29 colon = system: HT29 colon
IGROV1 ovarian = system: IGROV1 ovarian
K-562 leukemia = system: K-562 leukemia
LOX IMVI melanoma = system: LOX IMVI melanoma
M14 melanoma = system: M14 melanoma
MALME-3M melanoma = system: MALME-3M melanoma
MCF7 breast = system: MCF7 breast
MDA-MB-231 breast = system: MDA-MB-231 breast
MDA-MB-435 = system: MDA-MB-435
MDA-N = system: MDA-N
MOLT-4 leukemia = system: MOLT-4 leukemia
NCI-H226 lung = system: NCI-H226 lung
NCI-H23 lung = system: NCI-H23 lung
NCI-H460 lung = system: NCI-H460 lung
NCI-H522 lung = system: NCI-H522 lung
NCI/ADR-RES ovarian = system: NCI/ADR-RES ovarian
OVCAR-3 ovarian = system: OVCAR-3 ovarian
OVCAR-4 ovarian = system: OVCAR-4 ovarian
OVCAR-5 ovarian = system: OVCAR-5 ovarian
OVCAR-8 ovarian = system: OVCAR-8 ovarian
PC-3 prostate = system: PC-3 prostate
RPMI-8226 leukemia = system: RPMI-8226 leukemia
RXF 393 renal = system: RXF 393 renal
SF-268 CNS = system: SF-268 CNS
SF-295 CNS = system: SF-295 CNS
SF-539 CNS = system: SF-539 CNS
SK-MEL-2 melanoma = system: SK-MEL-2 melanoma
SK-MEL-28 melanoma = system: SK-MEL-28 melanoma
SK-MEL-5 melanoma = system: SK-MEL-5 melanoma
SN12C renal = system: SN12C renal
SNB-19 CNS = system: SNB-19 CNS
SNB-75 CNS = system: SNB-75 CNS
SR leukemia = system: SR leukemia
SW-620 colon = system: SW-620 colon
T-47D breast = system: T-47D breast
TK-10 renal = system: TK-10 renal
U251 CNS = system: U251 CNS
UACC-257 melanoma = system: UACC-257 melanoma
UACC-62 melanoma = system: UACC-62 melanoma

O=c1oc2c(Br)c(O)c(Br)cc2c2ccccc12
TGI (786-0 renal): > 100 µM | TGI (A498 renal): 58.5 µM | TGI (A549 NSCLC): 87.1 µM | TGI (ACHN renal): > 100 µM | TGI (BT-549 breast): 75.3 µM | TGI (CAKI-1 renal): 31.1 µM | TGI (CCRF-CEM leukemia): 65.4 µM | TGI (COLO 205 colon): > 100 µM | TGI (DU-145 prostate): 70.8 µM | TGI (EKVX NSCLC): 67.4 µM | TGI (HCC-2998 colon): 72.4 µM | TGI (HCT-116 colon): 92.6 µM | TGI (HCT-15 colon): 42.9 µM | TGI (HL-60(TB) leukemia): 52.3 µM | TGI (HOP-62 NSCLC): > 100 µM | TGI (HOP-92 NSCLC): 74.6 µM | TGI (HS 578T breast): 66.2 µM | TGI (HT29 colon): > 100 µM | TGI (IGROV1 ovarian): > 100 µM | TGI (K-562 leukemia): 50.9 µM | TGI (LOX IMVI melanoma): 68.9 µM | TGI (M14 melanoma): > 100 µM | TGI (MALME-3M melanoma): 64.8 µM | TGI (MCF7 breast): 48.7 µM | TGI (MDA-MB-231 breast): 66.1 µM | TGI (MDA-MB-435): > 100 µM | TGI (MDA-N): > 100 µM | TGI (MOLT-4 leukemia): 67.1 µM | TGI (NCI-H226 lung): 80.5 µM | TGI (NCI-H23 lung): 38.6 µM | TGI (NCI-H460 lung): 57 µM | TGI (NCI-H522 lung): 51.3 µM | TGI (NCI/ADR-RES ovarian): 78.1 µM | TGI (OVCAR-3 ovarian): 40.7 µM | TGI (OVCAR-4 ovarian): 89.9 µM | TGI (OVCAR-5 ovarian): > 100 µM | TGI (OVCAR-8 ovarian): > 100 µM | TGI (PC-3 prostate): 50.4 µM | TGI (RPMI-8226 leukemia): 75.4 µM | TGI (RXF 393 renal): > 100 µM | TGI (SF-268 CNS): 69 µM | TGI (SF-295 CNS): > 100 µM | TGI (SF-539 CNS): 63.3 µM | TGI (SK-MEL-2 melanoma): 62.7 µM | TGI (SK-MEL-28 melanoma): > 100 µM | TGI (SK-MEL-5 melanoma): 50.2 µM | TGI (SN12C renal): 84.4 µM | TGI (SNB-19 CNS): 93.4 µM | TGI (SNB-75 CNS): 78.9 µM | TGI (SR leukemia): 71.6 µM | TGI (SW-620 colon): > 100 µM | TGI (T-47D breast): 96.5 µM | TGI (TK-10 renal): > 100 µM | TGI (U251 CNS): 87.8 µM | TGI (UACC-257 melanoma): 61.7 µM | TGI (UACC-62 melanoma): 50.5 µM
